Assay results taken from patent US20120071533A1, “ANTI-FUNGAL FORMULATION” (priority 2009, published 2012).
Where “and” joins values, the source holds several entries; their conditions need not be identical. Equal entries are not always repeated. Marks after values point to notes of the source that are not given here.

Tests used:
[1] = system: genus Candida; test: In vitro antifungal activity (MIC) against the genus Candida; type: cell-based
Method: (§1) The antifungal activities of luliconazole, the Z form of luliconazole, and the SE form of luliconazole were determined. The compounds were tested against the genus Trichophyton and the genus Candida. The MICs against Trichophyton were 15-250 times higher for the Z form and 120-1000 times higher for the S-E form than for luliconazole. The MICs against the genus Candida were 4-500 times higher for the Z form and 8-1000 times higher for the S-E form than for luliconazole.

[2] = cited from earlier work
[3] = system: Trichophyton rubrum, Trichophyton mentagrophytes and Trichophyton tonsurans; conditions: versus terbinafine, liranaftate, butenafine, amorolfine, ketoconazole, clotrimazole, neticonazole, miconazole, bifonazole; cited from earlier work
[4] = system: genus Trichophyton; test: In vitro antifungal activity (MIC) against the genus Trichophyton; type: cell-based
Method: as §1

[5] = Visual observations of luliconazole solubility samples (crystals / clear solution); type: physicochemical; conditions: for concentration at which luliconazole was completely soluble (visual observations): pilot studies
Method: (§2) Typically, luliconazole was weighed into a screw-cap glass vial, the desired solvent was added and the vial was tightly closed. The vials containing suspension were sonicated in an ultra-sonicator bath at 40° C. for 20-30 seconds; the vials were taken out of the bath and swirled to mix the contents. The sonication and swirling steps were repeated 3-4 times till most of the luliconazole was dissolved. […] The samples were stored at RT (21.5° C.,±1.5) and at 4° C. in tightly closed screw-cap glass vials. Sample preparation was conducted in a dark room under yellow light and samples were protected from light during storage.

[6] = Solubility of luliconazole in solvents and model formulations by UV spectrophotometer at 296 nm, 4° C. and RT (21.5° C., ±1.5); type: physicochemical
Method: as §2
Solubility was determined after 24 hours and again after 3 days at respective storage conditions (RT and 4° C.) using a UV spectrophotometer (Pharma Spec 1700; Shimadzu). Samples for quantitative determination of solubility were drawn from the supernatant area of the suspension (solution) into a 3 ml syringe with a 0.1 μm (pore size) syringe filter (nylon, 13 mm) attached. The desired amount of solution was delivered into a 100 ml volumetric flask that was immediately closed tightly with a stopper and weighed accurately to determine the exact weight of the solution. As ethyl acetate is incompatible with the plastic in the syringe and the housing of the syringe-filter, the ethyl acetate solution was centrifuged at 4200 rpm for 5 minutes and the supernatant solution was drawn for analysis using a glass Pasteur pipette.
The samples taken in volumetric flasks were diluted with methanol to the mark and diluted further before analyzing on the UV spectrophotometer. A five point standard curve of luliconazole (at 20, 10, 6, 4 and 2 μg/ml) in methanol was determined by reading the absorbance at 296 nm. The samples were also read at 296 nm and the concentration of luliconazole was determined from the equation of the standard curve. The solubility of luliconazole in respective solvents and model formulations was then determined as % wt/wt.
Solubility was calculated as % wt/wt from the UV spectrophotometric data read at 296 nm.

[7] = system: onychomycosis; conditions: onychomycosis of the toenail; package insert; cited from earlier work
[8] = in Benzyl alcohol (theoretical 40%; #853-38-13)
[9] = in Ethanol (theoretical 3.5%; #853-38-15)
[10] = in Ethyl acetate (theoretical 6.5%; #853-38-12)
[11] = in Transcutol P (theoretical 15%; #853-38-17)
[12] = in Acetone (theoretical 18%; #853-38-14)

In the case of `N#C/C(=C1/SC[C@@H](c2ccc(Cl)cc2Cl)S1)n1ccnc1` [luliconazole, (−)-(E)-[(4R)-(2,4-dichlorophenyl)-1,3-dithiolan-2-ylidene](1H-imidazol-1-yl)acetonitrile], the “MIC Range” value ([1]; C. albicans (6 strains)) is given as 0.030 to 0.25 µg/mL, the “MIC Range” value ([1]; C. glabrata (5 strains)) is given as “≦0.0080-0.030 μg/mL” and the solubility in water [2] is given as “practically insoluble in water”. For the same compound, the “potency compared with reference drugs” value [3] was “greater potency”, the “MIC Range” value ([4]; T. mentagrophytes (4 strains)) was 1 to 2 ng/mL and the “MIC Range” value ([4]; T. rubrum (4 strains)) was 0.24 to 0.5 ng/mL. For the same compound, the “visual observations at 3 days/4° C.” value [5, 8] was “clear solution”, the “visual observations at 3 days/RT” value [5, 8] was “clear solution” and the “visual observations at 3 days/RT” value [5, 9] was “clear solution”. The “visual observations at 3 days/4° C.” value [5, 10] was “clear solution”, the “visual observations at 3 days/RT” value [5, 10] was “clear solution” and the “visual observations at 3 days/4° C.” value [5, 11] was “clear solution”. The “visual observations at 3 days/RT” value [5, 11] was “clear solution”, the “concentration at which luliconazole was completely soluble (visual observations)” value ([5]; in Transcutol P) was roughly 15% and the “concentration at which luliconazole was completely soluble (visual observations)” value ([5]; in benzyl alcohol) was roughly 40%. The “Solubility wt/wt % 4° C. 24 hr” value [6, 12] was 13.1 % wt/wt, the “Solubility wt/wt % 4° C. 3 days” value [6, 12] was 12 % wt/wt and 12.49 % wt/wt and the “Solubility wt/wt % RT 24 hr” value ([6]; in Acetone (theoretical 18%; #853-38-14), average duplicate sample preparations) was 17.67* % wt/wt. For the same compound, the “Solubility wt/wt % RT 3 days” value ([6]; in Benzyl alcohol (50%; saturated solution; #802-24-01)) was 43 % wt/wt and 43.44 % wt/wt, the “Solubility wt/wt % 4° C. 24 hr” value [6, 8] was 39.87 % wt/wt and the “Solubility wt/wt % 4° C. 3 days” value [6, 8] was 40 % wt/wt and 39.18 % wt/wt. The “Solubility wt/wt % RT 24 hr” value [6, 8] was 40.19 % wt/wt, the “Solubility wt/wt % RT 3 days” value ([6]; in Benzyl alcohol (theoretical 40%; #853-38-13), average duplicate sample preparations) was 40 % wt/wt and 39.91* % wt/wt and the “Solubility wt/wt % 4° C. 24 hr” value [6, 9] was 2.67 % wt/wt. For the same compound, the “Solubility wt/wt % 4° C. 3 days” value [6, 9] was 2.3 % wt/wt, the “Solubility wt/wt % RT 24 hr” value [6, 9] was 3.51 % wt/wt and the “Solubility wt/wt % 4° C. 24 hr” value [6, 10] was 6.14 % wt/wt. For the same compound, the “Solubility wt/wt % RT 24 hr” value ([6]; in Ethyl acetate (theoretical 6.5%; #853-38-12), average duplicate sample preparations) was 6.58* % wt/wt, the “Solubility wt/wt % RT 24 hr” value ([6]; in Isopropyl myristate (theoretical 5%; #853-38-10)) was 0.4 % wt/wt and 0.41 % wt/wt and the “Solubility wt/wt % RT 24 hr” value ([6]; in Propylene carbonate (theoretical 10%; #853-38-11)) was 8.98 % wt/wt. For the same compound, the “Solubility wt/wt % 4° C. 3 days” value [6, 11] was 14.78 % wt/wt, the “Solubility wt/wt % RT 24 hr” value [6, 11] was 15.12 % wt/wt and the “Solubility wt/wt % RT 3 days” value [6, 11] was 14.89 % wt/wt.
For `CN(C/C=C/C#CC(C)(C)C)Cc1cccc2ccccc12` [terbinafine], the “patients with both mycological cure and clinical cure” value [7] is listed as 38%.
